ChEMBL document CHEMBL4507294, “Data for DCP probe MSD-CYP11B2” (2021)

Experiments:
[1] = target: Rho-associated protein kinase 2 (Homo sapiens) (UniProt O75116); conditions: Compound concentration 1000.0 nM
[2] = target: SRSF protein kinase 1 (Homo sapiens) (UniProt Q96SB4); conditions: Compound concentration 1000.0 nM
[3] = system: Tyrosine-protein kinase ABL1 (Homo sapiens), P00519 [T315I]; conditions: Compound concentration 1000.0 nM
[4] = target: Epithelial discoidin domain-containing receptor 1 (Homo sapiens) (UniProt Q08345); conditions: Compound concentration 1000.0 nM
[5] = target: Calcium/calmodulin-dependent protein kinase type 1D (Homo sapiens) (UniProt Q8IU85); conditions: Compound concentration 1000.0 nM
[6] = target: Serine/threonine-protein kinase WNK2 (Homo sapiens) (UniProt Q9Y3S1); conditions: Compound concentration 1000.0 nM
[7] = target: Serine/threonine-protein kinase 26 (Homo sapiens) (UniProt Q9P289); conditions: Compound concentration 1000.0 nM
[8] = system: Phosphatidylinositol 4,5-bisphosphate 3-kinase catalytic subunit alpha isoform (Homo sapiens), P42336 [H1047L]; conditions: Compound concentration 1000.0 nM
[9] = system: Phosphatidylinositol 4,5-bisphosphate 3-kinase catalytic subunit alpha isoform (Homo sapiens), P42336 [I800L]; conditions: Compound concentration 1000.0 nM
[10] = target: Muscle, skeletal receptor tyrosine-protein kinase (Homo sapiens) (UniProt O15146); conditions: Compound concentration 1000.0 nM
[11] = target: Microtubule-associated serine/threonine-protein kinase 1 (Homo sapiens) (UniProt Q9Y2H9); conditions: Compound concentration 1000.0 nM
[12] = target: Tyrosine-protein kinase ZAP-70 (Homo sapiens) (UniProt P43403); conditions: Compound concentration 1000.0 nM
[13] = target: Tyrosine-protein kinase ABL1 (Homo sapiens) (UniProt P00519); conditions: Compound concentration 1000.0 nM
[14] = target: Serine/threonine-protein kinase SIK1 (Homo sapiens) (UniProt P57059); conditions: Compound concentration 1000.0 nM
[15] = target: Mitogen-activated protein kinase kinase kinase 1 (Homo sapiens) (UniProt Q13233); conditions: Compound concentration 1000.0 nM
[16] = target: Ephrin type-A receptor 6 (Homo sapiens) (UniProt Q9UF33); conditions: Compound concentration 1000.0 nM
[17] = system: Tyrosine-protein kinase ABL1 (Homo sapiens), P00519 [H396P]; conditions: Compound concentration 1000.0 nM
[18] = target: High affinity nerve growth factor receptor (Homo sapiens) (UniProt P04629); conditions: Compound concentration 1000.0 nM
[19] = target: Alpha-2C adrenergic receptor (Homo sapiens) (UniProt P18825); conditions: Compound concentration 10.0 uM
[20] = system: eIF-2-alpha kinase GCN2 (Homo sapiens), Q9P2K8 [S808G]; conditions: Compound concentration 1000.0 nM
[21] = target: Receptor-type tyrosine-protein kinase FLT3 (Homo sapiens) (UniProt P36888); conditions: Compound concentration 1000.0 nM
[22] = target: Serine/threonine-protein kinase MARK2 (Homo sapiens) (UniProt Q7KZI7); conditions: Compound concentration 1000.0 nM
[23] = target: Receptor-interacting serine/threonine-protein kinase 2 (Homo sapiens) (UniProt O43353); conditions: Compound concentration 1000.0 nM
[24] = target: Calcium-dependent protein kinase 1 (Plasmodium falciparum) (UniProt P62344); conditions: Compound concentration 1000.0 nM
[25] = target: Cyclin-dependent kinase 14 (Homo sapiens) (UniProt O94921); conditions: Compound concentration 1000.0 nM
[26] = target: Serine/threonine-protein kinase PLK1 (Homo sapiens) (UniProt P53350); conditions: Compound concentration 1000.0 nM
[27] = target: Dual specificity mitogen-activated protein kinase kinase 6 (Homo sapiens) (UniProt P52564); conditions: Compound concentration 1000.0 nM
[28] = target: 3-phosphoinositide-dependent protein kinase 1 (Homo sapiens) (UniProt O15530); conditions: Compound concentration 1000.0 nM
[29] = target: Death-associated protein kinase 1 (Homo sapiens) (UniProt P53355); conditions: Compound concentration 1000.0 nM
[30] = target: Cyclin-dependent kinase 9 (Homo sapiens) (UniProt P50750); conditions: Compound concentration 1000.0 nM
[31] = target: Dual specificity mitogen-activated protein kinase kinase 1 (Homo sapiens) (UniProt Q02750); conditions: Compound concentration 1000.0 nM
[32] = target: Mitogen-activated protein kinase kinase kinase 15 (Homo sapiens) (UniProt Q6ZN16); conditions: Compound concentration 1000.0 nM
[33] = target: Serine/threonine-protein kinase 38-like (Homo sapiens) (UniProt Q9Y2H1); conditions: Compound concentration 1000.0 nM
[34] = target: Serine/threonine-protein kinase TAO1 (Homo sapiens) (UniProt Q7L7X3); conditions: Compound concentration 1000.0 nM
[35] = target: Wee1-like protein kinase (Homo sapiens) (UniProt P30291); conditions: Compound concentration 1000.0 nM
[36] = target: Protein kinase C iota type (Homo sapiens) (UniProt P41743); conditions: Compound concentration 1000.0 nM
[37] = target: Serine/threonine-protein kinase RIO2 (Homo sapiens) (UniProt Q9BVS4); conditions: Compound concentration 1000.0 nM
[38] = target: Glycogen synthase kinase-3 beta (Homo sapiens) (UniProt P49841); conditions: Compound concentration 1000.0 nM
[39] = target: Cyclin-dependent kinase 17 (Homo sapiens) (UniProt Q00537); conditions: Compound concentration 1000.0 nM
[40] = target: Serine/threonine-protein kinase pim-3 (Homo sapiens) (UniProt Q86V86); conditions: Compound concentration 1000.0 nM
[41] = system: Receptor-type tyrosine-protein kinase FLT3 (Homo sapiens), P36888 [D835Y]; conditions: Compound concentration 1000.0 nM
[42] = target: Protein-tyrosine kinase 6 (Homo sapiens) (UniProt Q13882); conditions: Compound concentration 1000.0 nM
[43] = target: Serine/threonine-protein kinase ICK (Homo sapiens) (UniProt Q9UPZ9); conditions: Compound concentration 1000.0 nM
[44] = target: Ribosomal protein S6 kinase beta-1 (Homo sapiens) (UniProt P23443); conditions: Compound concentration 1000.0 nM
[45] = system: Mast/stem cell growth factor receptor Kit (Homo sapiens), P10721 [V559D,T670I]; conditions: Compound concentration 1000.0 nM
Sequence of Mast/stem cell growth factor receptor Kit (Homo sapiens), P10721 [V559D,T670I] (P10721 whole entry V559D/T670I): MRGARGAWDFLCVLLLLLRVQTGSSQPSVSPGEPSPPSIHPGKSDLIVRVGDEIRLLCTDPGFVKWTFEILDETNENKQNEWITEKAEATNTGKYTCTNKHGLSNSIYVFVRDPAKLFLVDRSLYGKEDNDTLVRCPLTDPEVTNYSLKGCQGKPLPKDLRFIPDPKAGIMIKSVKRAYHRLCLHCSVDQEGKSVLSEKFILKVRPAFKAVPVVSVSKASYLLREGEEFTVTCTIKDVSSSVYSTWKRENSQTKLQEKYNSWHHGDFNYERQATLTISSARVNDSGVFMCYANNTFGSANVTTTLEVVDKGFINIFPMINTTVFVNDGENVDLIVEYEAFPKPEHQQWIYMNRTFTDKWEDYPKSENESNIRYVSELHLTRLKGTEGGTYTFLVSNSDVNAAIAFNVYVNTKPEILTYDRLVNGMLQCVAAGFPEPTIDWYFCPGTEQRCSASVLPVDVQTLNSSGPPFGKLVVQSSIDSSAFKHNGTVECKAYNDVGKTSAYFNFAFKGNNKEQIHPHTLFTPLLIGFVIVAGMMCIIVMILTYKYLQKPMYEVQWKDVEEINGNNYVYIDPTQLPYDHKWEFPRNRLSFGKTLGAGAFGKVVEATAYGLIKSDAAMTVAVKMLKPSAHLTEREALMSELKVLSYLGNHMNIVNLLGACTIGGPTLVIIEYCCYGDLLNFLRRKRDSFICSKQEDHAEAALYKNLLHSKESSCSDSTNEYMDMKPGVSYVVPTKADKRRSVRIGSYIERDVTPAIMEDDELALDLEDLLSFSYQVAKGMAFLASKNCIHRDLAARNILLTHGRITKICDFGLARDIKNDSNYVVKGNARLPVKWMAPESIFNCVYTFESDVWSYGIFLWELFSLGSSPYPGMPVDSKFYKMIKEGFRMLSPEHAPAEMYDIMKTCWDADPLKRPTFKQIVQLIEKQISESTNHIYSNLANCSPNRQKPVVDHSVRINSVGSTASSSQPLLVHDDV

Sequence of Ephrin type-A receptor 6 (Homo sapiens) (Q9UF33 whole entry): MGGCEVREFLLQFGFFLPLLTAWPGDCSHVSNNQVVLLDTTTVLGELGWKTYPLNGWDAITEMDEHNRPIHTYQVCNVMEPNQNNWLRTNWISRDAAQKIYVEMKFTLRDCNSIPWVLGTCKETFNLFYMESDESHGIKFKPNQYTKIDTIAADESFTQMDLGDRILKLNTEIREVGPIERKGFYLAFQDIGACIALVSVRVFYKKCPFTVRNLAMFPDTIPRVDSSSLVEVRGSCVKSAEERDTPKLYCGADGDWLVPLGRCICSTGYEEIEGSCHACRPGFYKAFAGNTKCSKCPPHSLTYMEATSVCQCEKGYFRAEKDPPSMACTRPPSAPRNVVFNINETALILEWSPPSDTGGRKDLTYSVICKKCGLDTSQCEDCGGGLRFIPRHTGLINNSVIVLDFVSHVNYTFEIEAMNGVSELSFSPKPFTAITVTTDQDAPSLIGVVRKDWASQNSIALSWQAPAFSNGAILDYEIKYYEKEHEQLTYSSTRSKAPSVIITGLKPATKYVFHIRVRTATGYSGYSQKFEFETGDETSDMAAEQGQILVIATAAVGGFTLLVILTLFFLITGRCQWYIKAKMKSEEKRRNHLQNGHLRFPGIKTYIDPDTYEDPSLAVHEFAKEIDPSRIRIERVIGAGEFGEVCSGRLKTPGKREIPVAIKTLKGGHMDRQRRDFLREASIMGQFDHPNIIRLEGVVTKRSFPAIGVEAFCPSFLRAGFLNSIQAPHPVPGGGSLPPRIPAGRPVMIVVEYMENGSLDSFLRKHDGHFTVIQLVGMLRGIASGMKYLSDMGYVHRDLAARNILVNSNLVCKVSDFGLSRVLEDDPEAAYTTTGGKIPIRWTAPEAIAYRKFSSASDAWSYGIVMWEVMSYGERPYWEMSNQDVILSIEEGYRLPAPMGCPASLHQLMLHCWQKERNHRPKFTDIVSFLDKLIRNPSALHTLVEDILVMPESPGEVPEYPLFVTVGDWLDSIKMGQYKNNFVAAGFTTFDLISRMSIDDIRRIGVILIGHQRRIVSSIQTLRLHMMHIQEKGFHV
Sequence of Cyclin-dependent kinase 14 (Homo sapiens) (O94921 whole entry): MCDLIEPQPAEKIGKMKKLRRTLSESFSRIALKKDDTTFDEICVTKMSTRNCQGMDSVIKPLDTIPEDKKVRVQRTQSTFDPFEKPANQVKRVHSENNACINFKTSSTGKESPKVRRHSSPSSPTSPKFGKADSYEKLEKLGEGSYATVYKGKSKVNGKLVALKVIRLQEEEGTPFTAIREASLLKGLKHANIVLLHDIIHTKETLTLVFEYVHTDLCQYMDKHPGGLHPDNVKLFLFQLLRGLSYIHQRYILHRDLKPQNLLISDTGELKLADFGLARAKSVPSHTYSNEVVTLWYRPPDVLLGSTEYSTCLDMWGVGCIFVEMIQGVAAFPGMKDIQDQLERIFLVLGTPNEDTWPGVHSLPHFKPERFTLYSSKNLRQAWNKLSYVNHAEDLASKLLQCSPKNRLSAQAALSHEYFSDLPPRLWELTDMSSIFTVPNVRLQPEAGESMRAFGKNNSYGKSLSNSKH
Sequence of Ribosomal protein S6 kinase beta-1 (Homo sapiens) (P23443 whole entry, looked up): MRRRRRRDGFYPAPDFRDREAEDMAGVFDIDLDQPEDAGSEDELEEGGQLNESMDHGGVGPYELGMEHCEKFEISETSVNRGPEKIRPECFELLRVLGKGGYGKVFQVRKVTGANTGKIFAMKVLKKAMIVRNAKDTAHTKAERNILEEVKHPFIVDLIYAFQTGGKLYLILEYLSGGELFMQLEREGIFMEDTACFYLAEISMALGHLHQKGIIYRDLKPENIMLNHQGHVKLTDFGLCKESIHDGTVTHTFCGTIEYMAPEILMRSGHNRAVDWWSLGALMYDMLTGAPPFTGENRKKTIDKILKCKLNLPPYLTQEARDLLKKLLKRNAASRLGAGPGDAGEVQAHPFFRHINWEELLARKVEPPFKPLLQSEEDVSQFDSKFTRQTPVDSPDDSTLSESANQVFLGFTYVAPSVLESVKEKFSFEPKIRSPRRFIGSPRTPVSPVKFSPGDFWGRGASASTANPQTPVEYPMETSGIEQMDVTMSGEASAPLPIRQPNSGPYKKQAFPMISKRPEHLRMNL
Sequence of Serine/threonine-protein kinase ICK (Homo sapiens) (Q9UPZ9 whole entry): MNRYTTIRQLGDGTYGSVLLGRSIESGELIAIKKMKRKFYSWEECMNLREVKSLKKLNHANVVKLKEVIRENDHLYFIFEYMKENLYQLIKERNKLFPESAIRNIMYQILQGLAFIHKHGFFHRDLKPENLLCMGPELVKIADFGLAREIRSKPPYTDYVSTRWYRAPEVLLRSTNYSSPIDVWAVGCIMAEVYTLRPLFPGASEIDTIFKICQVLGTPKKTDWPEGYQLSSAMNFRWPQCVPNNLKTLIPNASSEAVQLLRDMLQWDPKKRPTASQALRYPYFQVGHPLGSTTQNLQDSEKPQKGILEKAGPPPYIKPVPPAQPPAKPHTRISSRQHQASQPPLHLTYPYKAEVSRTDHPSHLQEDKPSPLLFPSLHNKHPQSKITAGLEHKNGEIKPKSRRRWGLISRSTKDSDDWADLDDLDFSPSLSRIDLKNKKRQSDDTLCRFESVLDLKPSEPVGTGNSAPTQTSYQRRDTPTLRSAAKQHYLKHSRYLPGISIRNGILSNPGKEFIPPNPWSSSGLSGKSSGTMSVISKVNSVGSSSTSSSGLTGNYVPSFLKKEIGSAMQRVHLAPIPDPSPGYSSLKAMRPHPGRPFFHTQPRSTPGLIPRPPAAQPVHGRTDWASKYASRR
Sequence of Serine/threonine-protein kinase MARK2 (Homo sapiens) (Q7KZI7 whole entry): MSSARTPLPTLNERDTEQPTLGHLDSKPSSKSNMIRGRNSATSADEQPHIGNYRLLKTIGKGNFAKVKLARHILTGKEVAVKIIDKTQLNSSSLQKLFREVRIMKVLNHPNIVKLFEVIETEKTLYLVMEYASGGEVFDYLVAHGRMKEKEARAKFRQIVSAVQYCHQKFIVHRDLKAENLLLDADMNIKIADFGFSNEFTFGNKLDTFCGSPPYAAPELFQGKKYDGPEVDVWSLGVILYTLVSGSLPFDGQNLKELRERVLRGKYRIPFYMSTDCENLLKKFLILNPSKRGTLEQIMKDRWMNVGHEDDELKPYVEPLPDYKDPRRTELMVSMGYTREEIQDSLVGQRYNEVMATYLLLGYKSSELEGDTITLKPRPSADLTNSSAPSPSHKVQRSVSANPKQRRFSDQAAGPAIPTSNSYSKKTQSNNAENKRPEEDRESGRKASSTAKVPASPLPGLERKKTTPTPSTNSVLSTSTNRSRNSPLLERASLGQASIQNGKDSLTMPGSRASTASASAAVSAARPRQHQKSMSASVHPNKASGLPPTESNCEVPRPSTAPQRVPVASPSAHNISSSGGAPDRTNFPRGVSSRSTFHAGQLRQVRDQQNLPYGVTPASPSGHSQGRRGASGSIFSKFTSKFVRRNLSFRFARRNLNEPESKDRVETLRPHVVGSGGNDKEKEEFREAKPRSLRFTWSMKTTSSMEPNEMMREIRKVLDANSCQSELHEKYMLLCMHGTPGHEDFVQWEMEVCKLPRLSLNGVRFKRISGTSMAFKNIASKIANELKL

Structure (SMILES): CC(C)(O)c1cncc(-c2nc3ccc(F)cc3n2C2CC2)c1 [MSD-CYP11B2]
- residual activity [1]: 92%
- residual activity [2]: 100%
- residual activity [3]: 100%
- residual activity [4]: 100%
- residual activity [5]: 100%
- residual activity [6]: 100%
- residual activity [7]: 100%
- residual activity [8]: 97%
- residual activity [9]: 90%
- residual activity [10]: 100%
- residual activity [11]: 100%
- residual activity [12]: 100%
- residual activity [13]: 89%
- residual activity [14]: 100%
- residual activity [15]: 100%
- residual activity [16]: 100%
- residual activity [17]: 100%
- residual activity [18]: 100%
- inhibition [19]: 70.1%
- residual activity [20]: 100%
- residual activity [21]: 100%
- residual activity [22]: 100%
- residual activity [23]: 100%
- residual activity [24]: 100%
- residual activity [25]: 100%
- residual activity [26]: 100%
- residual activity [27]: 100%
- residual activity [28]: 97%
- residual activity [29]: 100%
- residual activity [30]: 100%
- residual activity [31]: 100%
- residual activity [32]: 100%
- residual activity [33]: 100%
- residual activity [34]: 100%
- residual activity [35]: 72%
- residual activity [36]: 89%
- residual activity [37]: 100%
- residual activity [38]: 100%
- residual activity [39]: 100%
- residual activity [40]: 98%
- residual activity [41]: 100%
- residual activity [42]: 100%
- residual activity [43]: 100%
- residual activity [44]: 100%
- residual activity [45]: 100%

Structure (SMILES): FC(F)(F)c1ccc2c(c1)nc(-c1cccnc1)n2C1CC1 [MSD-CYP11B2-Negative-control]
- residual activity [1]: 100%
- residual activity [2]: 80%
- residual activity [3]: 100%
- residual activity [4]: 100%
- residual activity [5]: 100%
- residual activity [6]: 100%
- residual activity [7]: 100%
- residual activity [8]: 100%
- residual activity [9]: 99%
- residual activity [10]: 100%
- residual activity [11]: 100%
- residual activity [12]: 100%
- residual activity [13]: 91%
- residual activity [14]: 100%
- residual activity [15]: 100%
- residual activity [16]: 100%
- residual activity [17]: 100%
- residual activity [18]: 100%
- inhibition [19]: 13.3%
- residual activity [20]: 93%
- residual activity [21]: 100%
- residual activity [22]: 100%
- residual activity [23]: 100%
- residual activity [24]: 100%
- residual activity [25]: 100%
- residual activity [26]: 96%
- residual activity [27]: 98%
- residual activity [28]: 94%
- residual activity [29]: 100%
- residual activity [30]: 100%
- residual activity [31]: 94%
- residual activity [32]: 100%
- residual activity [33]: 100%
- residual activity [34]: 100%
- residual activity [35]: 93%
- residual activity [36]: 83%
- residual activity [37]: 100%
- residual activity [38]: 100%
- residual activity [39]: 100%
- residual activity [40]: 100%
- residual activity [41]: 100%
- residual activity [42]: 100%
- residual activity [43]: 100%
- residual activity [44]: 100%
- residual activity [45]: 100%
